From ChEMBL document CHEMBL4000244, “Probing A-form DNA: A fluorescent aminosugar probe and dual recognition by anthraquinone-neomycin conjugates” (Bioorg Med Chem, 2017)

Legend:
[1] = Binding affinity to 5'-CCGCCGGG-3' DNA hairpin assessed as change in fluorescence intensity at 1 uM after 45 mins by fluorescence quenching analysis relative to control
[2] = Binding affinity to 5'-CCCGCGGC-3' DNA hairpin assessed as change in fluorescence intensity at 1 uM after 45 mins by fluorescence quenching analysis relative to control
[3] = Binding affinity to 5'-GGGCGCCG-3' DNA hairpin assessed as change in fluorescence intensity at 1 uM after 45 mins by fluorescence quenching analysis relative to control
[4] = Binding affinity to 5'-CGCCCCGG-3' DNA hairpin assessed as change in fluorescence intensity at 1 uM after 45 mins by fluorescence quenching analysis relative to control
[5] = Binding affinity to 5'-GCGCCGCG-3' DNA hairpin assessed as change in fluorescence intensity at 1 uM after 45 mins by fluorescence quenching analysis relative to control
[6] = Binding affinity to 5'-GCGCGCCC-3' DNA hairpin assessed as change in fluorescence intensity at 1 uM after 45 mins by fluorescence quenching analysis relative to control

Activity [1]: 43.7%
Activity [2]: 45.4%
Activity [3]: 50.6%
Activity [4]: 41.9%
Activity [5]: 46.9%
Activity [6]: 49.8%
SMILES: NCC1O[C@H](O[C@H]2[C@@H](O)[C@H](O[C@@H]3[C@@H](O)[C@H](N)C[C@H](N)[C@H]3O[C@H]3O[C@H](CN)[C@@H](O)[C@H](O)[C@H]3N)O[C@@H]2CSCCNC(=O)CCSCC(=O)Nc2ccc(-c3c4ccc(=O)cc-4oc4cc(O)ccc34)c(C(=O)O)c2)[C@H](N)[C@@H](O)[C@@H]1O (stereo partly specified)
